Assay results: patent US5179089A, “Isoquinoline compounds, compositions and use” (Chinoin Gyogyszer es Vegyeszeti Termekek Gyara Rt., priority 1990, dated 1993)
Structures can show the parent of a compound that is named as a salt. Where two headings read alike, the source gives them in different places. Each block holds one compound with its values, some of them ahead of it.

How the values were obtained:
[1] = test system: histamine-induced constriction of isolated tracheal smooth muscle of guinea pig; experiment: Inhibition of the histamine-induced constriction of isolated tracheal smooth muscle of guinea pig; conditions: isolated guinea pig trachea; for IC50: Cavia porcellus, 0.25 h, read-out: Inhibition of the histamine-induced constriction of isolated tracheal smooth muscle of guinea pig pd'2 (converted)
Procedure: I Study on the Effects Against Spasmogenic Mediators [modified method of J. C. […] The investigation on isolated organs were carried out as follows. OHF Lt/R9 guinea pigs of both sexes weighing 300 to 400 g each were anaesthetized by pentobarbital. Their trachea was removed and sectioned in the opposite side to the site of smooth muscle in longitudinal direction. Subsequently, a strip-like preparation was obtained by […] cutting. […] A rest load of 0.5 g was used. Several washings were carried out during the incubation period of 30 minutes. The change in the tension of the tracheal smooth muscle was followed by using an isometric Grass FT-03 type tensiometer sensor device. A washing was made following the cumulative dose series of the given mediator (e.g. histamine). After reaching the base line, by 15 minutes after administration of the given concentration of the inhibitory (antiasthmatic) substance to be tested, the next cumulative dose series of the mediator was administered. In the case of an inhibitory action, the strength of effect, following the second dose series of the mediator, was […] in comparison to that of the first (control) series. For characterization of strength of the competitive antagonistic effect the pA2 value was determined according to the method of […] A pd'2 value was calculated [J. M. Van Rossum: Arch. Int.

[2] = test system: carrageenin-induced rat paw edema; experiment: Carrageenin-induced rat paw edema test; assay type: in vivo, rat (female CFY); conditions: Rattus norvegicus, po, 50 mg/kg (p.o.), read-out: Percentage of the protective effect
Procedure: Proc. Soc. Exp. Med. 111, 544 (1962)]. Female CFY rats weighing 100 to 120 g each were used after starvation for 24 hours. The inflammation was induced by injecting 0.1 ml of 1% carrageenin solution into the right hind paw plant. The severity of inflammation was determined by using an Ugo-Basile type plethysmometer. The measurement was carried out before and 1.5, 3 and 4.5 hours after induction of the inflammation. The animals were orally treated with the substance to be tested 1 hour before administration of carrageenin. The effect was expressed as percentage inhibition related to the control group.

[3] = test system: dextran-induced rat paw edema; experiment: Dextran-induced rat paw edema test; assay type: in vivo; conditions: 50 mg/kg (p.o.)
Procedure: 3) Dextran-induced rat paw edema test The method of S. Gourvaisier and R. Ducrot [Arch. Int. Pharmacodyn. Ther. 102, 33 (1955)] was employed. The method described for the carrageenin edema test was followed, except that the measurements were carried out 30, 60, 90, 120 and 180 minutes after induction of the inflammation.

Compound: N#CC(SCC(O)CN1CCOCC1)=C1NCCc2ccccc21 (centres unmarked) [Example 16, 2-(1,2,3,4-tetrahydro-1-isoquinolinylidene)-2-[2-hydroxy-3-(4-morpholinyl)propyl]mercaptoacetonitrile hydrochloride hemihydrate]
IC50 [1]: 32.4 µM
change in vivo at 50 mg/kg ([2]; 1.5 hours): -29.3%
change in vivo at 50 mg/kg ([2]; 3 hours): -22.2%
change in vivo at 50 mg/kg ([2]; 4.5 hours): -20%

Compound: COc1cc2c(cc1OC)C(=C(C#N)SCC(O)CNC1CCCCC1)NCC2 (centres unmarked) [Example 10, 2-(6,7-dimethoxy-1,2,3,4-tetrahydro-1-isoquinolinylidene)-2-(3-cyclohexylamino-2-hydroxypropyl)mercaptoacetonitrile hydrochloride]
IC50 [1]: 105 µM
change in vivo at 50 mg/kg ([2]; 1.5 hours): -14.8%
change in vivo at 50 mg/kg ([2]; 3 hours): -13%
change in vivo at 50 mg/kg ([2]; 4.5 hours): -7.2%
Percentage of inhibition ([3]; 30 minutes): -25%
Percentage of inhibition ([3]; 60 minutes): -24%
Percentage of inhibition ([3]; 90 minutes): -25%
Percentage of inhibition ([3]; 120 minutes): -27%
Percentage of inhibition ([3]; 180 minutes): -50%

Compound: COc1cc2c(cc1OC)C(=C(C#N)SCC(O)CN(C)CCO)NCC2 (centres unmarked) [Example 3, 2-(6,7-dimethoxy-1,2,3,4-tetrahydro-isoquinolinylidene)-2-[3-(N-methyl-N-2-hydroxyethyl)-amino-2-hydroxypropyl]-mercapto-acetonitrile hydrochloride]
IC50 [1]: 26.9 µM

Compound: COc1cc2c(cc1OC)C(=C(C#N)SCC(CN1CCOCC1)OC(C)=O)NCC2 (centres unmarked) [Example 23, 2-(6,7-dimethoxy-1,2,3,4-tetrahydro-1-isoquinolinylidene)-2-[2-acetoxy-3-(4-morpholinyl)propyl]mercaptoacetonitrile hydrochloride]
IC50 [1]: 17.4 µM
change in vivo at 50 mg/kg ([2]; 1.5 hours): -33.8%
change in vivo at 50 mg/kg ([2]; 3 hours): -30.9%
change in vivo at 50 mg/kg ([2]; 4.5 hours): -29.5%

Compound: CCOc1cc2c(cc1OCC)C(=C(C#N)SCC(O)CN1CCOCC1)NCC2.Cl (single isomer, unassigned; (+)) [Example 28, (+)-2-(6,7-diethoxy-1,2,3,4-tetrahydro-1-isoquinolinylidene)-2-[2-hydroxy-3-(4-morpholinyl)propyl]mercaptoacetonitrile hydrochloride]
Inhibition of the histamine-induced constriction of isolated tracheal smooth muscle of guinea pig pd'2 ([1]; 15 min): 6.36

Compound: COc1cc2c(cc1OC)C(=C(C#N)SCC(O)CN(CCO)CCO)NCC2 (centres unmarked) [Example 4, 2-(6,7-dimethoxy-1,2,3,4-tetrahydro-1-isoquinolinylidene)-2-[3-(N,N-bis-2-hydroxyethyl)-amino-2-hydroxypropyl]-mercapto-acetonitrile hydrochloride dihydrate]
IC50 [1]: 50.1 µM
change in vivo at 50 mg/kg ([2]; 1.5 hours): -25%
change in vivo at 50 mg/kg ([2]; 3 hours): -26%
change in vivo at 50 mg/kg ([2]; 4.5 hours): -24%

Compound: COc1cc2c(cc1OC)C(=C(C#N)SCC(O)CN1CCCC1)NCC2 (centres unmarked) [Example 12, 2-(6,7-dimethoxy-1,2,3,4-tetrahydro-1-isoquinolinylidene)-2-[2-hydroxy-3-(1-pyrrolidinyl)propyl]mercaptoacetonitrile hydrochloride hemihydrate]
IC50 [1]: 15.5 µM
change in vivo at 50 mg/kg ([2]; 1.5 hours): -27.2%
change in vivo at 50 mg/kg ([2]; 3 hours): -18.9%
change in vivo at 50 mg/kg ([2]; 4.5 hours): -17.6%
Percentage of inhibition ([3]; 30 minutes): -20.2%
Percentage of inhibition ([3]; 60 minutes): -15.6%
Percentage of inhibition ([3]; 90 minutes): -14.7%
Percentage of inhibition ([3]; 120 minutes): -14.6%
Percentage of inhibition ([3]; 180 minutes): -12.6%

Compound: CCOc1cc2c(cc1OCC)C(=C(C#N)SCC(O)CNC(C)(C)C)NCC2 (centres unmarked) [Example 9, 2-(6,7-diethoxy-1,2,3,4-tetrahydro-1-isoquinolinylidene)-2-(3-tert-butylamino-2-hydroxypropyl)mercaptoacetonitrile hydrochloride hemihydrate]
IC50 [1]: 41.7 µM

Compound: CCOc1cc2c(cc1OCC)C(=C(C#N)SCC(O)CN1CCOCC1)NCC2 (single isomer, unassigned; (-)) [Example 27, (-)-2-(6,7-diethoxy-1,2,3,4-tetrahydro-1-isoquinolinylidene)-2-[2-hydroxy-3-(4-morpholinyl)propyl]mercaptoacetonitrile d-camphorsulfonate]
IC50 [1]: 0.537 µM

Compound: COc1cc2c(cc1OC)C(=C(C#N)SCC(O)CN1CCN(C)CC1)NCC2 (centres unmarked) [Example 21, 2-(6,7-dimethoxy-1,2,3,4-tetrahydro-1-isoquinolinylidene)-2-[2-hydroxy-3-(4-methyl-1-piperazinyl)propyl]mercaptoacetonitrile hydrochloride]
IC50 [1]: 2.88 µM

More lines, main results first:

IC50 [1]: 12.6 µM
Compound: CCOc1cc2c(cc1OCC)C(=C(C#N)SCC(O)CN1CCCC1)NCC2 (centres unmarked) [Example 13, 2-(6,7-diethoxy-1,2,3,4-tetrahydro-1-isoquinolinylidene)-2-[2-hydroxy-3-(1-pyrrolidinyl)propyl]mercaptoacetonitrile hydrochloride]
change in vivo at 50 mg/kg ([2]; 1.5 hours): -31.8%
change in vivo at 50 mg/kg ([2]; 3 hours): -21.8%
change in vivo at 50 mg/kg ([2]; 4.5 hours): -9.05%

IC50 [1]: 97.7 µM
Compound: COc1cc2c(cc1OC)C(=C(C#N)SCC(O)CN1CCCCCC1)NCC2 (centres unmarked) [Example 19, 2-(6,7-dimethoxy-1,2,3,4-tetrahydro-1-isoquinolinylidene)-2-(3-hexamethylenimino-2-hydroxypropyl)mercaptoacetonitrile]
change in vivo at 50 mg/kg ([2]; 1.5 hours): -29%
change in vivo at 50 mg/kg ([2]; 3 hours): -24.2%
change in vivo at 50 mg/kg ([2]; 4.5 hours): -19.5%
Percentage of inhibition ([3]; 30 minutes): -28.2%
Percentage of inhibition ([3]; 60 minutes): -26.6%
Percentage of inhibition ([3]; 90 minutes): -27.3%
Percentage of inhibition ([3]; 120 minutes): -27.8%
Percentage of inhibition ([3]; 180 minutes): -22.8%

IC50 [1]: 0.204 µM
Compound: COc1cc2c(cc1OC)C(=C(C#N)SCC(O)CNC(C)C)NCC2 (centres unmarked) [Example 6, 2-(6,7-dimethoxy-1,2,3,4-tetrahydro-1-isoquinolinylidene)-2-(2-hydroxy-3-isopropylaminopropyl)mercaptoacetonitrile hydrochloride hemihydrate]
change in vivo at 50 mg/kg ([2]; 1.5 hours): 0%
change in vivo at 50 mg/kg ([2]; 3 hours): -17%
change in vivo at 50 mg/kg ([2]; 4.5 hours): 0%

IC50 [1]: 13.5 µM
Compound: COc1cc2c(cc1OC)C(=C(C#N)SCC(O)CNC(C)(C)C)NCC2 (centres unmarked) [Example 8, 2-(6,7-dimethoxy-1,2,3,4-tetrahydro-1-isoquinolinylidene)-2-(3-tert-butylamino-2-hydroxypropyl)mercaptoacetonitrile hydrochloride]

IC50 [1]: 35.5 µM
Compound: CCOc1cc2c(cc1OCC)C(=C(C#N)SCC(O)CNC1CCCCC1)NCC2 (centres unmarked) [Example 11, 2-(6,7-diethoxy-1,2,3,4-tetrahydro-1-isoquinolinylidene)-2-(3-cyclohexylamino-2-hydroxypropyl)mercaptoacetonitrile hydrochloride]

IC50 [1]: 34.7 µM
Compound: COc1cc2c(cc1OC)C(=C(C#N)SCC(O)CN1CCCCC1)NCC2 (centres unmarked) [Example 15, 2-(6,7-dimethoxy-1,2,3,4,-tetrahydro-1-isoquinolinylidene)-2-[2-hydroxy-3-(1-piperidinyl)propil]mercaptoacetonitrile hydrochloride]

IC50 [1]: 45.7 µM
Compound: CCOc1cc2c(cc1OCC)C(=C(C#N)SCC(O)CN(CCO)CCO)NCC2 (centres unmarked) [Example 5, 2-(6,7-diethoxy-1,2,3,4-tetrahydro-1-isoquinolinylidene)-2-[3-(N,N-bis-2-hydroxyethyl)-amino-2-hydroxypropyl]mercapto-acetonitrile hydrochloride]
change in vivo at 50 mg/kg ([2]; 1.5 hours): -21%
change in vivo at 50 mg/kg ([2]; 3 hours): -16.5%
change in vivo at 50 mg/kg ([2]; 4.5 hours): -10%

IC50 [1]: 7.24 µM
Compound: CCOc1cc2c(cc1OCC)C(=C(C#N)SCC(O)CN1CCN(C)CC1)NCC2 (centres unmarked) [Example 22, 2-(6,7-diethoxy-1,2,3,4-tetrahydro-1-isoquinolinylidene)-2-[2-hydroxy-3-(4-methyl-piperazinyl)propyl]mercaptoacetonitrile hydrochloride]

IC50 [1]: 9.12 µM
Compound: CCN(CC)CC(O)CSC(C#N)=C1NCCc2cc(OC)c(OC)cc21 (centres unmarked) [Example 1, 2-(6,7-dimethoxy-1,2,3,4-tetrahydro-1-isoquinolinylidene)-2-(3-diethylamino-2-hydroxypropyl)-mercaptoacetonitrile hydrochloride]

IC50 [1]: 17.4 µM
Compound: CCOc1cc2c(cc1OCC)C(=C(C#N)SCC(O)CNC(C)C)NCC2 (centres unmarked) [Example 7, 2-(6,7-diethoxy-1,2,3,4-tetrahydro-1-isoquinolinylidene)-2-(2-hydroxy-3-isopropylaminopropyl)mercaptoacetonitrile hydrochloride]
